The source of these data is patent US10150743B2, “Carboxylic acid compounds” (priority 2012, dated 2018).

For orientation: IC50 means the concentration needed to halve the response being measured. Read a low IC50 as higher potency.

One assay addresses human TLR7 (Homo sapiens (Human), UniProt Q9NYK1). Briefly: Human TLR7 assay (SEAP reporter in HEK293). It counts as cell-based. The settings on record: SEAP induction, overnight incubation at 37° C., 0.1% DMSO; read-out: TLR7 (pEC50) (converted). The text has this: Recombinant human TLR7 was stably expressed in a HEK293 cell line already stably expressing the pNiFty2-SEAP reporter plasmid; integration of the reporter gene was maintained by selection with the antibiotic zeocin. The most common variant sequence of human TLR7 (represented by the EMBL sequence AF240467) was cloned into the mammalian cell expression vector pUNO and transfected into this reporter cell-line. Transfectants with stable expression were selected using the antibiotic blasticidin. In this reporter cell-line, expression of secreted alkaline phosphatase (SEAP) is controlled by an NFkB/ELAM-1 composite promoter comprising five NFkB sites combined with the proximal ELAM-1 promoter. TLR signaling leads to the translocation of NFkB and activation of the promoter results in expression of the SEAP gene. TLR7-specific activation was assessed by determining the level of SEAP produced following overnight incubation of the cells at 37° C. with the standard compound in the presence of 0.1% (v/v) dimethylsulfoxide (DMSO). Concentration dependent induction of SEAP production by compounds was expressed as the concentration of compound which produced half of the maximal level of SEAP induction for that compound (EC50).

In the next assay the target is hERG ion channel (Homo sapiens (Human), UniProt Q12809). The experiment in a line: hERG Analysis - Method 1 (IONWORKS HT, CHO-hERG cells). The settings on record: ~21° C. It counts as cell-based. The method, then: The hERG-expressing Chinese hamster ovary K1 (CHO) cells described by (Persson, Carlsson, Duker, & Jacobson, 2005) were grown to semi-confluence at 37° C. in a humidified environment (5% CO2) in F-12 Ham medium containing L-glutamine, 10% foetal calf serum (FCS) and 0.6 mg/mL hygromycin (all available from Sigma-Aldrich). Prior to use, the monolayer was washed using a pre-warmed (37° C.) 3 mL aliquot of Versene 1:5,000 (Invitrogen) After aspiration of this solution the flask was incubated at 37° C. in an incubator with a further 2 mL of Versene 1:5,000 for a period of 6 minutes. Cells were then detached from the bottom of the flask by gentle tapping and 10 mL of Dulbecco's Phosphate-Buffered Saline containing calcium (0.9 mM) and magnesium (0.5 mM) (PBS; Invitrogen) was then added to the flask and aspirated into a 15 mL centrifuge tube prior to centrifugation (50 g, for 4 mins). The resulting supernatant was discarded and the pellet gently re-suspended in 3 mL of PBS. A 0.5 mL aliquot of cell suspension was removed and the number of viable cells (based on trypan blue exclusion) was determined in an automated reader (Cedex; Innovatis) so that the cell re-suspension volume can be adjusted with PBS to give the desired final cell concentration. It is the cell concentration at this point in the assay that is quoted when referring to this parameter. CHO-Kv1.5 cells, which were used to adjust the voltage offset on IONWORKS™ HT, were maintained and prepared for use in the same way.
The principles and operation of this device have been described by (Schroeder, Neagle, Trezise, & Worley, 2003). Briefly, the technology is based on a 384-well plate (PATCHPLATE™) in which a recording was attempted in each well by using suction to position and hold a cell on a small hole separating two isolated fluid chambers. Once sealing had taken place, the solution on the underside of the PATCHPLATE™ was changed to one containing amphotericin B. This permeablises the patch of cell membrane covering the hole in each well and, in effect, allowed a perforated, whole-cell patch clamp recording to be made.
A β-test IONWORKS™ HT from Essen Instrument was used. […] (˜21° C.), as follows. The reservoir in the “Buffer” position was loaded with 4 mL of PBS and that in the “Cells” position with the CHO-hERG cell suspension described above. A 96-well plate (V-bottom, Greiner Bio-one) containing the compounds to be tested (at 3-fold above their final test concentration) was placed in the “Plate 1” position and a PATCHPLATE™ was clamped into the PATCHPLATE™ station. […]

A further assay concerns Renca mouse tumour cells. Briefly: Tumour growth studies in Renca, a murine syngeneic renal carcinoma tumour model. It counts as in vivo. The conditions noted are these: Balb/C mice, 0.3 mg/kg once a week p.o. on days 1, 8, 15; vs 0.5% methylcellulose; FIG. 9. The method, then: Experiments were conducted on female mice (Balb/C genotype, at least 5 weeks old). Renca mouse tumour cells (Cancer Chemother Pharmacol. 1995; 36 (1): 7-12) were kindly provided by Dr. T. Fujioka at Department of Urology, Iwate Medical University School of Medicine. Renca mouse tumour cells (5×10^4) were implanted subcutaneously in the flank of mice on day 0. Mice were treated with either drug vehicle (0.5% methylcellulose), the compound of Example 3 (0.3 mg/kg once a week) or the compound of Example 4 (3 mg/kg once a week) administered orally (p. o.) on days 1, 8, and 15. Tumour volumes were assessed at least twice weekly by bilateral vernier caliper measurements.
Tumour growth inhibition from the start of treatment was assessed by comparison of the differences in tumour growth rate between control and the compound of Example 3 treated groups, as shown in FIG. 9.
Tumour growth inhibition from the start of treatment was assessed by comparison of the differences in tumour growth rate between control and the compound of the Example 4 treated groups, as shown in FIG. 10.

Chain of human TLR7 (Q9NYK1 27-1049): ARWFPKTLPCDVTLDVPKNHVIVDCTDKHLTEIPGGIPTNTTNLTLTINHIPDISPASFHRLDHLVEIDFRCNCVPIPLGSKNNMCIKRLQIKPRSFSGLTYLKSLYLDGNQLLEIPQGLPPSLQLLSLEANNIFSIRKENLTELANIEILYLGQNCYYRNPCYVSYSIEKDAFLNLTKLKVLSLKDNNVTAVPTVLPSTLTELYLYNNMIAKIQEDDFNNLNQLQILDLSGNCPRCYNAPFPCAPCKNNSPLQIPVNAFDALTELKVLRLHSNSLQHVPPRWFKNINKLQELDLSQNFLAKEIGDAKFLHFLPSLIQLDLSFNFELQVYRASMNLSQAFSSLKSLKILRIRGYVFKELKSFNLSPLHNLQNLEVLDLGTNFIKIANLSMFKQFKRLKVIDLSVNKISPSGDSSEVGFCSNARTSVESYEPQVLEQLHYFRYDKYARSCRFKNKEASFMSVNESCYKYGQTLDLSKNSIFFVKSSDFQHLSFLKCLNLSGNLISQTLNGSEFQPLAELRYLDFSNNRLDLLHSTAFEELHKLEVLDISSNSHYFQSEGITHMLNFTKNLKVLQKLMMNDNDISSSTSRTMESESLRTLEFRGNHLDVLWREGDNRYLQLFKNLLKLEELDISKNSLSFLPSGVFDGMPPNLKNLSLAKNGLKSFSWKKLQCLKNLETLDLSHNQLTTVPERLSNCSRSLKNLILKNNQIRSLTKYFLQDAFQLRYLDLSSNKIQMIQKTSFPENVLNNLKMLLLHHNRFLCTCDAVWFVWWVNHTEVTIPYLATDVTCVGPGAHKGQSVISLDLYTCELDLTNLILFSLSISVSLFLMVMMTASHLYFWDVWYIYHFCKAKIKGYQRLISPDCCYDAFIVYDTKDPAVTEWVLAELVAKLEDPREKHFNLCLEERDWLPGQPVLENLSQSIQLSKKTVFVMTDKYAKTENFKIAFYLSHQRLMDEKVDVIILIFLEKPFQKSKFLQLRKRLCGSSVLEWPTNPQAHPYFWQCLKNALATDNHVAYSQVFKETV
Chain of hERG ion channel (Q12809 whole entry): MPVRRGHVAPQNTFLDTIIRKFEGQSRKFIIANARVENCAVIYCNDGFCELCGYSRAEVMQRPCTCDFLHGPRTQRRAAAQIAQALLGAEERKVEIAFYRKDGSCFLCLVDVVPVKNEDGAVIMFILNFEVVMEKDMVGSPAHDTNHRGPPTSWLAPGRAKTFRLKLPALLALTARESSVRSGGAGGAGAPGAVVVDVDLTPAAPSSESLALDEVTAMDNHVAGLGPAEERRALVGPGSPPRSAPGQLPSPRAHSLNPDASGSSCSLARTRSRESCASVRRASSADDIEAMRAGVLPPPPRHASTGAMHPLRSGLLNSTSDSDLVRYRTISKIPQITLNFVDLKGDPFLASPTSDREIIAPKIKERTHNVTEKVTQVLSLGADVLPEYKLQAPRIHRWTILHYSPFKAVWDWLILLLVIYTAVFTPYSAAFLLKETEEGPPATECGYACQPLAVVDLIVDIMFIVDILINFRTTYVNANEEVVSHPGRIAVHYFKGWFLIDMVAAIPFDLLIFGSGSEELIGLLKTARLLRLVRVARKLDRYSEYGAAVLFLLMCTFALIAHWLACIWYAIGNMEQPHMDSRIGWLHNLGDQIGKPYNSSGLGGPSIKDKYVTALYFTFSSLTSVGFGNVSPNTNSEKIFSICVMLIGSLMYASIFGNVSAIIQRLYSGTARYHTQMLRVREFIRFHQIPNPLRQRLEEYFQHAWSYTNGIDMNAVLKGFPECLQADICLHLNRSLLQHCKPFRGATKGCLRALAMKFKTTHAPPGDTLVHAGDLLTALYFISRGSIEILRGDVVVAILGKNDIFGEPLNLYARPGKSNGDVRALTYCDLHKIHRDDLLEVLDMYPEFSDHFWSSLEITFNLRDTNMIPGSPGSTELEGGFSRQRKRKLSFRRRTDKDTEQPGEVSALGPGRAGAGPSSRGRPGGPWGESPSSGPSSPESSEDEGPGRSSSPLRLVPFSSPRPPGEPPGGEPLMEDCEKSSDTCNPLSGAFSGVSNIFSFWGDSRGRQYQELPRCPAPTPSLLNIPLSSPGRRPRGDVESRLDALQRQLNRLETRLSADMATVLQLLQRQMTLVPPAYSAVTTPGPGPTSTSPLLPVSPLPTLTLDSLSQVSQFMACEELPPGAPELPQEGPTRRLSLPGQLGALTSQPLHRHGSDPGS

As for `CCC[C@@H](CCO)Nc1nc(N)nc(C)c1Cc1ccc(CN(CC(=O)O)CC(F)F)cc1OC` [Example 3, (S)-2-((4-((2-amino-4-(1-hydroxyhexan-3-ylamino)-6-methylpyrimidin-5-yl)methyl)-3-methoxybenzyl)(2,2-difluoroethyl)amino)acetic acid], on human TLR7, the EC50 was 79.4 nM. Besides, the IC50 on hERG ion channel was above 33000 nM. In the assay with Renca mouse tumour cells, the Tumour growth inhibition result is “inhibited tumour growth”.
